The test system of assay [1] is OECM1. Nature of the assay: Cell cytotoxicity assay (MTS), OECM1. The assay is classed as cell-based. The note with it: Homo sapiens. The protocol: (§1) Cells were seeded into the wells of 96-well plates (2000 cells/well). After an overnight culture, the cells were treated with different concentrations of a compound for 72 h. The CellTiter 96 AQueous one-solution cell proliferation assay (MTS) reagent was used to determine cytotoxicity. After treatment with a compound, 20 μL of the MTS reagent was added to each well and the plates were incubated at 37° C. for 1-4 h. Next, the absorbance at 490 nm of the culture medium in each well was determined using a VersaMax microplate reader (Molecular Devices).

Assay [2] addresses T1, Purified porcine tubulin (Sus scrofa, UniProt P02554).
T1 construct: purchased Cytoskeleton
Nature of the assay: In vitro tubulin polymerization assay. The assay is classed as biochemical. The note with it: 5 μM, A340 every min for 1 h at 37° C. On the procedure:
Reagents from a Tubulin Polymerization Assay kit (Cytoskeleton) were used according to the manufacturer's instructions. Purified porcine tubulin (4 mg/mL; >99% purity) in G-PEM buffer (80 mM PIPES, 2 mM MgCl2, 0.5 mM EGTA, 1 mM GTP, 15% glycerol, pH 6.9) was mixed with each test compound in the wells of a 96-well plate. Then, the A340 value was recorded each minute for 1 h at 37° C. with the VersaMax microplate reader.

Assay [3] deals with Ovcar-3. Description: Cell cytotoxicity assay (MTS), Ovcar-3. The assay is classed as cell-based. The note with it: Homo sapiens. On the procedure:
as §1

The test system of assay [4] is SKOV-3. Description: Cell cytotoxicity assay (MTS), SKOV-3. The assay is classed as cell-based. The note with it: Homo sapiens, SK-OV-3. The protocol:
as §1

The target of assay [5] is T2, purified centrosomes and tubulin (Sus scrofa, UniProt P02554).
T2 construct: purchased Cytoskeleton
Nature of the assay: In vitro microtubule nucleation assay. The assay is classed as biochemical, porcine. The protocol: Purified centrosomes were incubated with or without AS1712 and with porcine tubulin (Cytoskeleton) in 80 mM PIPES, 1 mM MgCl2, 1 mM EGTA, and 1 mM GTP, pH 6.8 for 8 min at 37° C. Microtubule asters were fixed in 1% glutaraldehyde, sedimented onto acid-treated coverslips, and finally subjected to immunofluorescence with anti-α-tubulin. The fiber lengths of the microtubule asters were measured using MetaMorph image analysis software (n=20/group).

For assay [6], the system named is Colon205. Nature of the assay: Cell cytotoxicity assay (MTS), Colon205. The assay is classed as cell-based. The note with it: Homo sapiens. On the procedure: as §1
The subject of assay [7] is CEM/VBL. Description: Cell cytotoxicity assay (MTS), CEM/VBL. The assay is classed as cell-based, human. The note with it: CEM/VBL vs CCRF-CEM. The protocol:
as §1

The subject of assay [8] is KB. Description: Cell cytotoxicity assay (MTS), KB. The assay is classed as cell-based. The note with it: Homo sapiens. On the procedure:
as §1

Assay [9] relates to 23 cancer cell lines. Nature of the assay: Cytotoxicity against 23 cancer cell lines. The assay is classed as cell-based, human. On the procedure: as §1
Assay [10] relates to H1975 xenograft tumor. Nature of the assay: H1975 xenograft tumor model. The assay is classed as in vivo, BALB/c nude mice. The note with it: day 25. On the procedure:
Using the H1975, MDA-MB-231, and KBtax xenograft models, tumors were established after inoculation into the right flanks of 6-week-old BALB/c nude mice (NARLabs, Taipei, Taiwan). After establishment of the tumors, vehicle and test compounds, which had been dissolved in DMSO, were each injected intraperitoneally into a separate group of animals three times per week. The body mass of each animal and tumor volumes were measured before each drug delivery. Tumor volume was calculated as 0.5W^2L (with W being the width of the smaller diameter and L being the length of the larger diameter). The animal experiment was carried out in accordance with the procedures and guidelines of the Institutional Animal Care and Use Committee, Institute of Biomedical Sciences, Academia Sinica.

Assay [11] deals with Hs578t. Nature of the assay: Cell cytotoxicity assay (MTS), Hs578t. The assay is classed as cell-based. The note with it: Homo sapiens, Hs-578T, 72 h. On the procedure:
as §1

Assay [12] concerns the target colchicine site of tubulin (Sus scrofa, UniProt P02554). Nature of the assay: Colchicine competition assay. The assay is classed as binding. The note with it: 37° C. for 1 h. On the procedure: Tubulin ([…]) and colchicine ([…]) were incubated with the various concentrations of AS1712, nocodazole, or vincristine in 80 mM PIPES, 2 mM MgCl2, 0.5 mM EGTA, pH 6.9 at 37° C. for 1 h. Fluorescence intensities (excitation and emission wavelengths at 365 and 435 nm, respectively) were recorded using an Infinite M200 plate reader (Tecan). Fluorescence values were normalized to the DMSO control.

For assay [13], the system named is A549, CL1-0, PC9, and H1975. Description: MTS assay, non-small cell lung cancer cell lines. The assay is classed as cell-based. The note with it: Homo sapiens; A549, CL1-0, PC9, H1975; 72 h MTS; read-out: IC50 values for the affected cell lines. The protocol:
as §1

Assay [14] has as its system CL1-0. Nature of the assay: Cell cytotoxicity assay (MTS), CL1-0. The assay is classed as cell-based. The note with it: Homo sapiens, CL1-0, 72 h. The protocol:
as §1

Assay [15] has as its system HCT116. Description: Cell cytotoxicity assay (MTS), HCT116. The assay is classed as cell-based. The note with it: Homo sapiens, HCT-116. The protocol:
as §1

In assay [16] the test system is normal bronchial epithelial (NBE) cells. Description: Cell cytotoxicity assay (MTS), normal bronchial epithelial cells. The assay is classed as cell-based. The note with it: Homo sapiens, normal cell line NBE (printed NEB in Table 2). The protocol:
as §1

Assay [17] relates to HT-29. Description: Cell cytotoxicity assay (MTS), HT-29. The assay is classed as cell-based. The note with it: Homo sapiens. The protocol: as §1
Assay [18] has as its system CL1-0 and H1975 cells. Description: Pro-apoptotic protein immunoblotting, cancer cells. The assay is classed as cell-based, human. The note with it: 24 to 72 h. On the procedure: (§2) The cells were harvested and lysed in RIPA buffer (20 mM Tris-HCl, 150 mM NaCl, 1 mM Na2EDTA, 1% sodium deoxycholate, 1% IGEPAL CA-630, 0.1% SDS, pH 7.5) with protease inhibitors (Roche). Protein concentration was measured by the BCA assay. For immunoprecipitation, protein extracts were incubated with mag-beads-AS1712 or mag-beads-control at 4° C. overnight and then washed five times with PBS before immunoblotting. For immunoblotting, equivalent amounts of denatured proteins were separated through SDS-PAGE gels and then transferred to PVDF membranes (Millipore), which were each blocked with 5% nonfat milk in PBS and 0.1% Tween-20 (Sigma Aldrich) for 1 h. Then each membrane was incubated with a primary antibody overnight at 4° C., followed by incubation with a horseradish peroxidase conjugated secondary antibody for 1 h at room temperature. The signal was visualized by enhanced chemiluminescence detection, and images were acquired using a BioSpectrum Imaging System (UVP).

Assay [19] concerns A549. Nature of the assay: Cell cytotoxicity assay (MTS), A549. The assay is classed as cell-based. The note with it: Homo sapiens, A549, 72 h. The protocol: as §1
Assay [20] has as its system HFB cells. Description: Pro-apoptotic protein immunoblotting, HFB. The note with it: 24 to 72 h, normal HFB cells. The assay is classed as cell-based, human. The protocol:
as §2
Background: Immunoblotting shows a protein as a band on a membrane.

Assay [21] has as its system BT-549. Nature of the assay: Cell cytotoxicity assay (MTS), BT-549. The assay is classed as cell-based. The note with it: Homo sapiens, BT-549, 72 h. On the procedure: as §1
Assay [22] has as its system Molt4. Nature of the assay: Cell cytotoxicity assay (MTS), Molt4. The assay is classed as cell-based. The note with it: Homo sapiens, MOLT-4. The protocol:
as §1

This is an account of results in patent publication US12109207B2, “Methods of using 4(1H)-quinolone derivatives” (Academia Sinica, priority 2019, dated 2024).

By IC50 is commonly meant the midpoint of a concentration-inhibition curve.

For `CCOC(=O)c1ccc2[nH]c(-c3ccccc3)cc(=O)c2c1` [AS1712, Ethyl 4-oxo-2-phenyl-1,4-dihydroquinoline-6-carboxylate], the IC50 in assay [1] was 52 ± 1.94 nM; in assay [3] it was 28 ± 1.08 nM; in [4], 50 ± 0.32 nM; in assay [6], 57 ± 5.17 nM; in assay [8], 37 ± 0.27 nM; in assay [9] (Homo sapiens, lung, breast, ovarian, head and neck, colon, prostate, leukemia lines, read-out: IC50 values for the 23 cancer cell lines tested), 16 to 84 nM. Also, the half-inhibitory concentration (IC50) in [11] was 41 ± 2.87 nM; in [13], 16 to 33 nM; in assay [14], 16 ± 2.48 nM; in [15], 50 ± 0.81 nM; in [16], greater than 10000 nM; in assay [17], 48 ± 0.62 nM. For the same compound, the IC50 was 20 ± 0.98 nM in assay [19], 33 ± 1.51 nM in [21] and 38 ± 1.03 nM in [22]. For the same compound, the tubulin polymerization result in assay [2] was “directly inhibit tubulin polymerization”. Further, the “formation of microtubule asters from the centrosome” value in assay [5] is reported as “substantially inhibited”. In addition, in assay [7], the “RF, resistance factor (IC50 in resistant cell line/IC50 in parent cell line)” value is listed as 0.97. This compound displayed a therapeutic window in [9] (cancer cell lines vs normal cells) greater than 100 fold. The average tumor size in assay [10] (4 mg/kg intraperitoneally three times a week) turned out to be 871.3±106 mm^3; in [10] (8 mg/kg intraperitoneally three times a week), 587.2±67 mm^3. Further, in assay [12], the colchicine fluorescence result is listed as “decreased the colchicine fluorescence in a dose-dependent manner”. Further, the “cleavage of poly(ADP-ribose) polymerase (PARP) and caspase-3” value in assay [18] was “induced cleavage”. Besides, in [20], the “PARP and caspase-3” value is reported as “not affected”.
